Laboratory results as given in ChEMBL document CHEMBL4011590, “Structure-activity relationship studies on 3,5-dinitrophenyl tetrazoles as antitubercular agents” (Eur J Med Chem, 2017).
Converted amounts (≈) assume the structure as drawn.

Experiments:
[1] = test system: Candida tropicalis; assay: Antifungal activity against Candida tropicalis 156 after 24 hrs by broth microdilution method; format: functional; details: Candida tropicalis, 156, 24 h
[2] = test system: Mycobacterium kansasii; assay: Antimycobacterial activity against Mycobacterium kansasii isolate 6509/96 after 21 days by micromethod; format: functional; details: isolate 6509/96, 504 h
[3] = test system: Nakaseomyces glabratus; assay: Antifungal activity against Candida glabrata 20/I after 48 hrs by broth microdilution method; format: functional
[4] = test system: Trichosporon asahii; assay: Antifungal activity against Trichosporon asahii 1188 after 24 hrs by broth microdilution method; format: functional; details: Trichosporon asahii, 1188, 24 h
[5] = test system: Staphylococcus aureus; assay: Antibacterial activity against methicillin-resistant Staphylococcus aureus HK5996/08 after 24 hrs by broth microdilution method; format: functional; details: HK5996/08, 24 h
[6] = test system: Staphylococcus epidermidis; assay: Antibacterial activity against Staphylococcus epidermidis HK6966/08 after 24 hrs by broth microdilution method; format: functional; details: HK6966/08, 24 h
[7] = test system: Mycobacterium avium; assay: Antimycobacterial activity against Mycobacterium avium CNCTC My 330/80 after 21 days by micromethod; format: functional; details: CNCTC My 330/80, 504 h
[8] = test system: Mycobacterium tuberculosis; assay: Antimycobacterial activity against Mycobacterium tuberculosis H37Rv CNCTC My 331/88 after 21 days by micromethod; format: functional; details: H37Rv CNCTC My 331/88, 504 h
[9] = test system: Enterococcus sp.; assay: Antibacterial activity against Enterococcus sp. HK14365/08 after 48 hrs by broth microdilution method; format: functional; details: HK14365/08, 48 h
[10] = test system: Staphylococcus aureus; assay: Antibacterial activity against Staphylococcus aureus ATCC 6538 after 24 hrs by broth microdilution method; format: functional; details: ATCC 6538, 24 h
[11] = test system: Aspergillus fumigatus; assay: Antifungal activity against Aspergillus fumigatus 231 after 24 hrs by broth microdilution method; format: functional; details: Aspergillus fumigatus, 231, 24 h
[12] = test system: Candida albicans; assay: Antifungal activity against Candida albicans ATCC 44859 after 24 hrs by broth microdilution method; format: functional; details: ATCC 44859, 24 h
[13] = test system: Enterococcus sp.; assay: Antibacterial activity against Enterococcus sp. HK14365/08 after 24 hrs by broth microdilution method; format: functional; details: HK14365/08, 24 h
[14] = test system: Aspergillus fumigatus; assay: Antifungal activity against Aspergillus fumigatus 231 after 48 hrs by broth microdilution method; format: functional; details: Aspergillus fumigatus, 231, 48 h
[15] = test system: Trichosporon asahii; assay: Antifungal activity against Trichosporon asahii 1188 after 48 hrs by broth microdilution method; format: functional; details: Trichosporon asahii, 1188, 48 h
[16] = test system: Pseudomonas aeruginosa; assay: Antibacterial activity against Pseudomonas aeruginosa ATCC 9027 after 48 hrs by broth microdilution method; format: functional; details: ATCC 9027, 48 h
[17] = test system: Klebsiella pneumoniae; assay: Antibacterial activity against Klebsiella pneumoniae HK11750/08 after 24 hrs by broth microdilution method; format: functional; details: HK11750/08, 24 h
[18] = test system: Trichophyton mentagrophytes; assay: Antifungal activity against Trichophyton mentagrophytes 445 after 72 hrs by broth microdilution method; format: functional; details: Trichophyton mentagrophytes, 445, 72 h
[19] = test system: Mycobacterium avium; assay: Antimycobacterial activity against Mycobacterium avium CNCTC My 330/80 after 14 days by micromethod; format: functional; details: CNCTC My 330/80, 336 h
[20] = test system: Nakaseomyces glabratus; assay: Antifungal activity against Candida glabrata 20/I after 24 hrs by broth microdilution method; format: functional
[21] = test system: Klebsiella pneumoniae; assay: Antibacterial activity against extended spectrum beta-lactamase producing Klebsiella pneumoniae HK14368/08 after 24 hrs by broth microdilution method; format: functional; details: HK14368/08, 24 h
[22] = test system: Mycobacterium kansasii; assay: Antimycobacterial activity against Mycobacterium kansasii CNCTC My 235/80 after 7 days by micromethod; format: functional; details: CNCTC My 235/80, 168 h
[23] = test system: Mycobacterium kansasii; assay: Antimycobacterial activity against Mycobacterium kansasii CNCTC My 235/80 after 14 days by micromethod; format: functional; details: CNCTC My 235/80, 336 h
[24] = test system: Pichia kudriavzevii; assay: Antifungal activity against Candida krusei E28 after 48 hrs by broth microdilution method; format: functional; details: E28, 48 h
[25] = test system: Klebsiella pneumoniae; assay: Antibacterial activity against Klebsiella pneumoniae HK11750/08 after 48 hrs by broth microdilution method; format: functional; details: HK11750/08, 48 h
[26] = test system: Staphylococcus epidermidis; assay: Antibacterial activity against Staphylococcus epidermidis HK6966/08 after 48 hrs by broth microdilution method; format: functional; details: HK6966/08, 48 h
[27] = test system: Staphylococcus aureus; assay: Antibacterial activity against Staphylococcus aureus ATCC 6538 after 48 hrs by broth microdilution method; format: functional; details: ATCC 6538, 48 h
[28] = test system: Trichophyton mentagrophytes; assay: Antifungal activity against Trichophyton mentagrophytes 445 after 120 hrs by broth microdilution method; format: functional; details: Trichophyton mentagrophytes, 445, 120 h
[29] = test system: Mycobacterium kansasii; assay: Antimycobacterial activity against Mycobacterium kansasii CNCTC My 235/80 after 21 days by micromethod; format: functional; details: CNCTC My 235/80, 504 h
[30] = test system: Mycobacterium tuberculosis; assay: Antimycobacterial activity against Mycobacterium tuberculosis H37Rv CNCTC My 331/88 after 14 days by micromethod; format: functional; details: H37Rv CNCTC My 331/88, 336 h
[31] = test system: Lichtheimia corymbifera; assay: Antifungal activity against Absidia corymbifera 272 after 48 hrs by broth microdilution method; format: functional; details: Lichtheimia corymbifera, 272, 48 h
[32] = test system: Candida albicans; assay: Antifungal activity against Candida albicans ATCC 44859 after 48 hrs by broth microdilution method; format: functional; details: ATCC 44859, 48 h
[33] = test system: Escherichia coli; assay: Antibacterial activity against Escherichia coli ATCC 8739 after 24 hrs by broth microdilution method; format: functional; details: ATCC 8739, 24 h
[34] = test system: Pseudomonas aeruginosa; assay: Antibacterial activity against Pseudomonas aeruginosa ATCC 9027 after 24 hrs by broth microdilution method; format: functional; details: ATCC 9027, 24 h
[35] = test system: Mycobacterium kansasii; assay: Antimycobacterial activity against Mycobacterium kansasii isolate 6509/96 after 7 days by micromethod; format: functional; details: isolate 6509/96, 168 h
[36] = test system: Mycobacterium kansasii; assay: Antimycobacterial activity against Mycobacterium kansasii isolate 6509/96 after 14 days by micromethod; format: functional; details: isolate 6509/96, 336 h
[37] = test system: Candida tropicalis; assay: Antifungal activity against Candida tropicalis 156 after 48 hrs by broth microdilution method; format: functional; details: Candida tropicalis, 156, 48 h
[38] = test system: Klebsiella pneumoniae; assay: Antibacterial activity against extended spectrum beta-lactamase producing Klebsiella pneumoniae HK14368/08 after 48 hrs by broth microdilution method; format: functional; details: HK14368/08, 48 h
[39] = test system: Pichia kudriavzevii; assay: Antifungal activity against Candida krusei E28 after 24 hrs by broth microdilution method; format: functional; details: E28, 24 h
[40] = test system: Escherichia coli; assay: Antibacterial activity against Escherichia coli ATCC 8739 after 48 hrs by broth microdilution method; format: functional; details: ATCC 8739, 48 h
[41] = test system: Lichtheimia corymbifera; assay: Antifungal activity against Absidia corymbifera 272 after 24 hrs by broth microdilution method; format: functional; details: Lichtheimia corymbifera, 272, 24 h
[42] = test system: Staphylococcus aureus; assay: Antibacterial activity against methicillin-resistant Staphylococcus aureus HK5996/08 after 48 hrs by broth microdilution method; format: functional; details: HK5996/08, 48 h
[43] = test system: CHO-K1; assay: Cytotoxicity against CHOK1 cells after 24 hrs by MTT assay; format: cell-based; details: Cricetulus griseus, CHO-K1, 24 h

Q: With `O=[N+]([O-])c1cc(-c2nnn(Cc3cccc(Br)c3)n2)cc([N+](=O)[O-])c1` as the compound, how does the MIC [1] read?
A: > 500 µM

Q: And the MIC99 [2]?
A: 2 µM (≈ 0.81 µg/mL)

Q: And the MIC [3]?
A: > 500 µM

Q: What about the MIC [4] of the same compound?
A: > 500 µM

Q: And the MIC [5]?
A: > 500 µM

Q: And the MIC [6]?
A: 250 µM (≈ 101 µg/mL)

Q: What about the MIC99 [7] of the same compound?
A: 8 µM (≈ 3.24 µg/mL)

Q: What about the MIC99 [8] of the same compound?
A: 0.25 µM (≈ 0.101 µg/mL)

Q: And the MIC [9]?
A: > 500 µM

Q: What about the MIC [10] of the same compound?
A: 250 µM (≈ 101 µg/mL)

Q: And the MIC [11]?
A: > 500 µM

Q: And the MIC [12]?
A: > 500 µM

Q: And the MIC [13]?
A: > 500 µM

Q: What about the MIC [14] of the same compound?
A: > 500 µM

Q: And the MIC [15]?
A: > 500 µM

Q: And the MIC [16]?
A: > 500 µM

Q: What about the MIC [17] of the same compound?
A: > 500 µM

Q: And the MIC [18]?
A: > 500 µM

Q: What about the MIC99 [19] of the same compound?
A: 4 µM (≈ 1.62 µg/mL)

Q: And the MIC [20]?
A: > 500 µM

Q: And the MIC [21]?
A: > 500 µM

Q: What about the MIC99 [22] of the same compound?
A: 1 µM (≈ 0.405 µg/mL)

Q: What about the MIC99 [23] of the same compound?
A: 2 µM (≈ 0.81 µg/mL)

Q: What about the MIC [24] of the same compound?
A: > 500 µM

Q: What about the MIC [25] of the same compound?
A: > 500 µM

Q: What about the MIC [26] of the same compound?
A: 250 µM (≈ 101 µg/mL)

Q: What about the MIC [27] of the same compound?
A: 250 µM (≈ 101 µg/mL)

Q: What about the MIC [28] of the same compound?
A: > 500 µM

Q: And the MIC99 [29]?
A: 2 µM (≈ 0.81 µg/mL)

Q: What about the MIC99 [30] of the same compound?
A: 0.25 µM (≈ 0.101 µg/mL)

Q: And the MIC [31]?
A: > 500 µM

Q: And the MIC [32]?
A: > 500 µM

Q: And the MIC [33]?
A: > 500 µM

Q: What about the MIC [34] of the same compound?
A: > 500 µM

Q: What about the MIC99 [35] of the same compound?
A: 0.5 µM (≈ 0.203 µg/mL)

Q: And the MIC99 [36]?
A: 1 µM (≈ 0.405 µg/mL)

Q: And the MIC [37]?
A: > 500 µM

Q: And the MIC [38]?
A: > 500 µM

Q: What about the MIC [39] of the same compound?
A: > 500 µM

Q: What about the MIC [40] of the same compound?
A: > 500 µM

Q: And the MIC [41]?
A: > 500 µM

Q: What about the MIC [42] of the same compound?
A: > 500 µM

Q: What about the IC50 [43] of the same compound?
A: 29 µM

Q: What does the source list for `O=[N+]([O-])c1cc(-c2nnn(CSc3nnnn3-c3ccc(Cl)c(Cl)c3)n2)cc([N+](=O)[O-])c1`?
A: MIC [1]: > 125 µM; MIC99 [2]: 0.06 µM (≈ 0.0297 µg/mL); MIC [3]: > 125 µM; MIC [4]: > 125 µM; MIC [5]: > 125 µM; MIC [6]: > 125 µM; MIC99 [7]: 8 µM (≈ 3.96 µg/mL); MIC99 [8]: 0.03 µM (≈ 0.0149 µg/mL); MIC [9]: > 125 µM; MIC [10]: > 125 µM; MIC [11]: > 125 µM; MIC [12]: > 125 µM; MIC [13]: > 125 µM; MIC [14]: > 125 µM; MIC [15]: > 125 µM; MIC [16]: > 125 µM; MIC [17]: > 125 µM; MIC [18]: > 125 µM; MIC99 [19]: 4 µM (≈ 1.98 µg/mL); MIC [20]: > 125 µM; MIC [21]: > 125 µM; MIC99 [22]: 0.06 µM (≈ 0.0297 µg/mL); MIC99 [23]: 0.125 µM (≈ 0.0619 µg/mL); MIC [24]: > 125 µM; MIC [25]: > 125 µM; MIC [26]: > 125 µM; MIC [27]: > 125 µM; MIC [28]: > 125 µM; MIC99 [29]: 125 µM (≈ 61.9 µg/mL); MIC99 [30]: 0.03 µM (≈ 0.0149 µg/mL); MIC [31]: > 125 µM; MIC [32]: > 125 µM; MIC [33]: > 125 µM; MIC [34]: > 125 µM; MIC99 [35]: 0.03 µM (≈ 0.0149 µg/mL); MIC99 [36]: 0.06 µM (≈ 0.0297 µg/mL); MIC [37]: > 125 µM; MIC [38]: > 125 µM; MIC [39]: > 125 µM; MIC [40]: > 125 µM; MIC [41]: > 125 µM; MIC [42]: > 125 µM; IC50 [43]: 8.7 µM
